This passage reports IC50 and MIC results from patent US8901119B2, “Peptide deformylase inhibitors” (GlaxoSmithKline Intellectual Property (No. 2) Limited, priority 2011, dated 2014).

The target of test [1] is T1, Staphylococcus aureus PDF (SaPDF) (Staphylococcus aureus, UniProt P68826).
T1 sequence (P68826 1-183): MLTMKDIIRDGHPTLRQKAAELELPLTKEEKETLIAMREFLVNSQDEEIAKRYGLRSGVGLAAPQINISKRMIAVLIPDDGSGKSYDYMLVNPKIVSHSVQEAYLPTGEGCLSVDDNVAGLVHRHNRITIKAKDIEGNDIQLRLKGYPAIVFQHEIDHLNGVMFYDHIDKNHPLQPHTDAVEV
The test can be described thus: PDF IC50 Assay 1 (FDH-coupled, absorbance 340 nm). The conditions noted are these: Assay 1 conditions; read-out: IC50, S. aureus PDF activity. The class given is biochemical. The procedure:
(§1) Enzymatic activity of PDF was measured using a formate dehydrogenase (FDH)-coupled assay [Lazennec and Meinnel (1997) Anal. Biochem. 244, 180-182]. Once formate is released from methionine by PDF, it is oxidized by FDH thereby reducing one molecule of NAD to NADH and resulting in an increase in absorbance at 340 nm. Reactions were initiated by adding PDF to microtiter plates containing all other reaction components and were continuously monitored for 20 min at 25° C. The final reaction composition for the Staphylococcus aureus PDF (SaPDF) assay was 50 mM potassium phosphate, pH 7.6, 5 units/mL FDH, 7 mM NAD, 1% DMSO, 0.01% CHAPS, 1 nM SaPDF, and 3 mM formyl-Met-Ala-Ser in 40 μL total volume. Serial dilutions of inhibitors were performed in DMSO. Reagents and assay format were identical for Haemophilus influenzae PDF except that formyl-Met-Ala-Ser was 6 mM final. In the Streptococcus pneumoniae PDF assay, reaction conditions were similar but contained […] enzyme, 4 mM NAD and 4 mM formyl-Met-Ala-Ser. The varying formyl-Met-Ala-Ser concentrations reflect KM values for substrate using the different PDF isozymes. IC50s were determined by fitting to the equation: % Inhibition=100/1+(IC50/[l])^s, where s is a slope factor, l is the inhibitor concentration and the IC50 is the concentration of compound that causes 50% inhibition.

The target of test [2] is Haemophilus influenzae PDF (Haemophilus influenzae, UniProt P44786). The test can be described thus: PDF IC50 Assay 1 (FDH-coupled, absorbance 340 nm). The class given is biochemical. As for the experimental part:
as §1

The target in test [3] is T2, Streptococcus pneumoniae PDF (Streptococcus pneumoniae serotype 4, UniProt Q9F2F0).
T2 sequence (Q9F2F0 1-203): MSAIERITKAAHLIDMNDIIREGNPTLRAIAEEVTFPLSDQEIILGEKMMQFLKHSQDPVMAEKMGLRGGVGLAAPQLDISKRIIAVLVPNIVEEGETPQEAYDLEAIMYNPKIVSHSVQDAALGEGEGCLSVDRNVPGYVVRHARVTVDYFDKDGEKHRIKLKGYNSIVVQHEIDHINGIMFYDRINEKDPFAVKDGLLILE
The test can be described thus: PDF IC50 Assay 1 (FDH-coupled, absorbance 340 nm). The settings on record: Assay 1 conditions; read-out: IC50, S. pneumoniae PDF activity. The class given is biochemical. The procedure: as §1

Test [4] deals with Staphylococcus aureus WCUH29. The test can be described thus: Antimicrobial activity assay (broth microdilution MIC). Format: cell-based. The settings on record: read-out: MIC, S. aureus WCUH29. The procedure: (§2) Whole-cell antimicrobial activity was determined by broth microdilution using the Clinical and Laboratory Standards Institute (CLSI, formerly NCCLS) recommended methodology (NCCLS Document M7-A7, “Methods for Dilution Antimicrobial Susceptibility Tests for Bacteria that Grow Aerobically; Approved Standard—Seventh Edition”, 2006). Compounds were tested in serial two-fold dilutions ranging from 64 to 0.06 μg/mL against a panel of at least 11 strains. This panel consisted of the following laboratory strains: Staphylococcus aureus Oxford, Staphylococcus aureus WCUH29, Enterococcus faecalis I, Enterococcus faecalis 7 or Enterococcus faecalis X7501, Haemophilus influenzae Q1, Haemophilus influenzae NEMC1 or Haemophilus influenzae H128, Moraxella catarrhalis 1502, Streptococcus pneumoniae 1629, Streptococcus pneumoniae N1387, Streptococcus pneumoniae Ery2 and Escherichia coli 7623 or Escherichia coli 3. All compounds were also tested against Haemophilus influenzae H128 or Escherichia coli 7623 efflux minus mutants (strains in which the AcrA efflux pump had been deleted) to ascertain the extent in which the molecules were effluxed out of the bacteria. In addition, the antibacterial activity of some compounds against Streptococcus pyogenes 1307006P and Streptococcus pyogenes 1308007P was also analyzed. The minimum inhibitory concentration (MIC) was determined as the lowest concentration of compound that inhibited visible growth. A mirror reader was used to assist in determining the MIC endpoint.

The subject of another test is Escherichia coli 3. The test is described as above. Format: cell-based. The conditions noted are these: read-out: MIC, E. coli 3. The procedure:
as §2

Test [5] has as its system Streptococcus pneumoniae 1629. Described as above. Format: cell-based. The conditions noted are these: read-out: MIC, S. pneumoniae 1629. As for the experimental part: as §2
In test [6] the test system is Moraxella catarrhalis 1502. The test is described as above. Format: cell-based. As for the experimental part:
as §2

Test [7] has as its system Haemophilus influenzae Q1. The description is as above. Format: cell-based. The settings on record: Q1, broth microdilution, read-out: MIC, H. influenzae Q1. As for the experimental part:
as §2
(In general: Dilution methods test growth across graded concentrations, often in twofold steps.)

In test [8] the test system is Haemophilus influenzae H128. The test is described as above. Format: cell-based. The conditions noted are these: read-out: MIC, H. influenzae H128. As for the experimental part:
as §2

Test [9] deals with Streptococcus pneumoniae Ery2. The description is as above. Format: cell-based. The conditions noted are these: ERY2, read-out: MIC, S. pneumoniae ERY2. The procedure:
as §2

In test [10] the test system is Streptococcus pyogenes 1308007P. The description is as above. The class given is cell-based. The settings on record: read-out: MIC, S. pyogenes 1308007P. As for the experimental part: as §2
Another test deals with Enterococcus faecalis I. The description is as above. Format: cell-based. The conditions noted are these: read-out: MIC, E. faecalis I. As for the experimental part: as §2
Test [11] concerns Streptococcus pneumoniae N1387. Described as above. The settings on record: read-out: MIC, S. pneumoniae N1387. Format: cell-based. As for the experimental part:
as §2

The subject of test [12] is Staphylococcus aureus Oxford. Described as above. The class given is cell-based. The settings on record: read-out: MIC, S. aureus Oxford. As for the experimental part: as §2
Test [13] has as its system Enterococcus faecalis X7501. The test is described as above. Format: cell-based. The settings on record: read-out: MIC, E. faecalis X7501. As for the experimental part:
as §2

In brackets after ≈: the same amount, converted by molar mass. A value given as a limit tells only on which side of the number the result lay.

Sequence of Haemophilus influenzae PDF (P44786 whole entry): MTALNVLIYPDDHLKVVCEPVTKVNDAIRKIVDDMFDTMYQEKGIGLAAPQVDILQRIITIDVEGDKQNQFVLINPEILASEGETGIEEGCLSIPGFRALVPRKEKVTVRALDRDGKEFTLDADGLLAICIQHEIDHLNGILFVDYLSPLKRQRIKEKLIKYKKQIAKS

The term IC50 denotes the concentration at which inhibition is half-maximal. As to `O=CN(O)C[C@@H](CC1CCCC1)C(=O)N1NCC[C@H]1C(=O)Nc1ccncn1` [Example 59, (3S)-2-((2R)-3-Cyclopentyl-2-{[formyl(hydroxy)amino]methyl}propanoyl)-N-4-pyrimidinyl-3-pyrazolidinecarboxamide], the IC50 in test [1], in test [2] and in test [3] was at most 1000 nM throughout. The MIC in test [4] was at most 0.06 µg/mL; in the test with Escherichia coli 3, 16 µg/mL (≈ 41 µM); in test [5], 1 µg/mL (≈ 2.56 µM); in test [6] it was at most 0.06 µg/mL; in test [7], 0.25 µg/mL (≈ 0.64 µM); in test [8], 0.5 µg/mL (≈ 1.28 µM). The MIC turned out to be 0.25 µg/mL (≈ 0.64 µM) in [9]; 0.25 µg/mL (≈ 0.64 µM) in [10]; 2 µg/mL (≈ 5.12 µM) with Enterococcus faecalis I; 0.5 µg/mL (≈ 1.28 µM) in test [11]; 0.5 µg/mL (≈ 1.28 µM) in [12]; 1 µg/mL (≈ 2.56 µM) in test [13].
